Results on 21 compounds are retold here after patent publication US20140094493A1, “Novel Ether Linked Compounds and Improved Treatments for Cardiac and Cardiovascular Disease” (priority 2011, published 2014).

A word on the Kd: it is the equilibrium constant for the complex coming apart. What is called melting point is the temperature of the solid-liquid transition.

In one data set the target is T1, human beta1-adrenoceptor (Homo sapiens, UniProt P08588).
T1 construct: expressed in transfected cells; host or cells: CHO cells
As to the kind of experiment: 3H-CGP12177 whole-cell binding, beta1. As to conditions: for Kd: 3H-CGP 12177 whole cell binding, CHO cells expressing human beta1-adrenoceptor, logarithmic value, read-out: Beta 1 Log KD (converted); for Beta 1-Beta 2 Log KD (selectivity): difference of Log KD beta1 and beta2, 1 = 10-fold, 2 = 100-fold, 3 = 1000-fold selectivity. The procedure:
(§1) Selectivity of ligands for the three beta-adrenoceptors was assessed by whole-cell binding studies using ^3H-CGP12177 in CHO cells expressing the human beta1, beta2 or beta3-adrenoceptors respectively essentially as described by Baker (2005; Br. J Pharmacol: 144, 317-22) Values shown are KD values determined as described by Baker (2005). KD represents the concentration of compound required to occupy 50% of the receptors in cells or tissues.
(§2) The selectivity of a ligand is given by the ratio of beta-1 to beta-2 KD. Accordingly a difference of one in the logarithmic values thereof represents a 10-fold selectivity, a difference of 2 represents 100-fold selectivity and a difference of 3 represents 1000-fold selectivity etc.

The target of a further data set is T2, human beta2-adrenoceptor (Homo sapiens, UniProt P07550).
T2 construct: expressed in transfected cells; host or cells: CHO cells
As to the kind of experiment: 3H-CGP12177 whole-cell binding, beta2. As to conditions: 3H-CGP 12177 whole cell binding, CHO cells expressing human beta2-adrenoceptor; logarithmic value; read-out: Beta 2 Log KD (converted). The procedure:
as §1, §2

In the next data set the target is β1-adrenoceptor (Homo sapiens, UniProt P08588). The conditions noted are these: background statement on known compounds; cited from earlier work.
Sequence of β1-adrenoceptor (P08588 whole entry, species assumed): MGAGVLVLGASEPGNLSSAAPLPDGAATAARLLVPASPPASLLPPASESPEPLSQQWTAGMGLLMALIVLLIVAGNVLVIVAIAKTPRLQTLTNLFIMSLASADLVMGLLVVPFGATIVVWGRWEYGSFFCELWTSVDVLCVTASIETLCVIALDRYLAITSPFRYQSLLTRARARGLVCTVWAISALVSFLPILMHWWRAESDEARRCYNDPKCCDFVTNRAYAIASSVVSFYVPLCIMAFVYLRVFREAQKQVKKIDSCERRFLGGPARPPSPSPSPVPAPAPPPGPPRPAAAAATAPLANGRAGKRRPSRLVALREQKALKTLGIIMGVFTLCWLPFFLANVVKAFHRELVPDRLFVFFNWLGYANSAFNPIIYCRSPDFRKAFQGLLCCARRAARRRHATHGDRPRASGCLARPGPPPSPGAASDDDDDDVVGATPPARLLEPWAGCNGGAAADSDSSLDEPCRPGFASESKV

T1 sequence (P08588 whole entry): as the sequence (P08588 whole entry, species assumed) above
T2 sequence (P07550 whole entry): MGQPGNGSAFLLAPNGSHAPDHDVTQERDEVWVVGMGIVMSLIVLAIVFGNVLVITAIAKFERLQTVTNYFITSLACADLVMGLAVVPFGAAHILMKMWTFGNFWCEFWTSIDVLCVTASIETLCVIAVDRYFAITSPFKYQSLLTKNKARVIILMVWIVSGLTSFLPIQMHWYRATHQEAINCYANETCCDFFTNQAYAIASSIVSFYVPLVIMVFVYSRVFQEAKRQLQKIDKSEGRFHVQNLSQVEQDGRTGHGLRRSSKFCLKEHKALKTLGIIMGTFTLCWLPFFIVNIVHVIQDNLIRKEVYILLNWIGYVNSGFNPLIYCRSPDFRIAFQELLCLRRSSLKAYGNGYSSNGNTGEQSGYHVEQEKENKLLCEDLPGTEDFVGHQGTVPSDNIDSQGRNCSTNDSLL

Consider `CN(C)C(=O)c1ccc(OCCNC[C@H](O)COc2ccc(OCCOC3CCCC3)cc2)cc1` [Example 6], for which the melting point lay within 73 to 75 °C. For the same compound, at human beta1-adrenoceptor, the Kd was 11.5 nM and the “Beta 1-Beta 2 Log KD (selectivity)” value is 1.96. Also, the Kd on human beta2-adrenoceptor is 1050 nM.

For the compound `NC(=O)c1ccc(OCCNC[C@H](O)COc2ccc(CCCOCC3CC3)cc2)cc1` [Example 8], the melting point lay in the range of 132 to 135 °C. Besides, on human beta1-adrenoceptor, the Kd was 2.88 nM and the “Beta 1-Beta 2 Log KD (selectivity)” value is reported as 2.66. Besides, the Kd on human beta2-adrenoceptor was 1320 nM.

`NC(=O)c1ccc(OCCNC[C@H](O)COc2ccc(CCCOC3CCCC3)cc2)cc1` [Example 9] registered a melting point of 120 to 122 °C. Besides, at human beta1-adrenoceptor, the Kd was 0.912 nM and the “Beta 1-Beta 2 Log KD (selectivity)” value came out at 2.59. Further, the Kd at human beta2-adrenoceptor was 355 nM.

`NC(=O)c1ccc(OCCNC[C@H](O)COc2ccc3c(c2)OC[C@@H](COCC2CC2)O3)cc1` [Example 11]: the melting point was in the range of 136 to 138 °C. On human beta1-adrenoceptor, the Kd was 23.4 nM and the “Beta 1-Beta 2 Log KD (selectivity)” value was found to be 2.64. Besides, the Kd on human beta2-adrenoceptor is 10200 nM.

`O[C@@H](CNCCOc1ccc2ncccc2c1)COc1ccc(CCCOCC2CC2)cc1` [Example 12] showed a melting point of 128 to 130 °C. For the same compound, at human beta1-adrenoceptor, the Kd was 0.832 nM and the “Beta 1-Beta 2 Log KD (selectivity)” value is 2.22. Further, the Kd at human beta2-adrenoceptor is 138 nM.

In turn, `CC(=O)Nc1ccc(OCCNC[C@H](O)COc2ccc3c(c2)OC[C@@H](COCC2CC2)O3)cc1` [Example 15] registered a melting point of 123 to 125 °C. Also, on human beta1-adrenoceptor, the Kd was 7.59 nM and the “Beta 1-Beta 2 Log KD (selectivity)” value amounted to 2.76. At human beta2-adrenoceptor, the Kd is 4370 nM.

As to `NC(=O)c1ccc(OCCNC[C@H](O)COc2ccc3c(c2)OC[C@@H](COC2CCCC2)O3)cc1` [Example 16], the melting point was in the range of 134 to 136 °C. Besides, on human beta1-adrenoceptor, the Kd is 6.17 nM and the “Beta 1-Beta 2 Log KD (selectivity)” value was found to be 2.91. Moreover, the Kd at human beta2-adrenoceptor is 5010 nM.

In turn, `O=c1[nH]c2ccc(OCCNC[C@H](O)COc3ccc(CCCOCC4CC4)cc3)cc2[nH]1` [Example 22] gave a melting point of 183 to 185 °C. Also, at human beta1-adrenoceptor, the Kd was 8.32 nM and the “Beta 1-Beta 2 Log KD (selectivity)” value is 2.23. In addition, the Kd at human beta2-adrenoceptor was 1410 nM.

As to `O=C1NCc2cc(OCCNC[C@H](O)COc3ccc4c(c3)OC[C@H](COc3ccc(F)cc3)O4)ccc21` [Example 26], the melting point lay within 161 to 164 °C. Further, at human beta1-adrenoceptor, the Kd was 4.17 nM and the “Beta 1-Beta 2 Log KD (selectivity)” value was 2.78. Further, the Kd at human beta2-adrenoceptor was 2510 nM.

`NC(=O)c1ccc(OCCNC[C@H](O)COc2ccc3cc(COCC4CC4)ccc3c2)cc1` [Example 28] showed a melting point of 148 to 150 °C. At human beta1-adrenoceptor, the Kd was 117 nM and the “Beta 1-Beta 2 Log KD (selectivity)” value is less than 2.93. For the same compound, the Kd on human beta2-adrenoceptor was greater than 100000 nM.

Compound `O=C1NCc2cc(OCCNC[C@H](O)COc3ccc4cc(OCC5CC5)ccc4c3)ccc21` [Example 29] showed a melting point of 194 to 196 °C. In addition, at human beta1-adrenoceptor, the Kd is 79.4 nM and the “Beta 1-Beta 2 Log KD (selectivity)” value was less than 3.10. Further, at human beta2-adrenoceptor, the Kd was greater than 100000 nM.

The compound `O=C1NCc2cc(OCCNC[C@H](O)COc3ccc4c(c3)OC[C@@H](COc3ccncc3)O4)ccc21` [Example 30] yielded a melting point of 192 to 194 °C. Further, on human beta1-adrenoceptor, the Kd is 57.5 nM and the “Beta 1-Beta 2 Log KD (selectivity)” value worked out at 3.10. Moreover, the Kd at human beta2-adrenoceptor is 72400 nM.

For the compound `O=C1NCc2cc(OCCNC[C@H](O)COc3ccc4c(c3)OC[C@@H](COc3ccc(OC(F)(F)F)cc3)O4)ccc21` [Example 34], the melting point lay within 188 to 189 °C. Further, on human beta1-adrenoceptor, the Kd is 3.39 nM and the “Beta 1-Beta 2 Log KD (selectivity)” value is on record as 3.37. On human beta2-adrenoceptor, the Kd is 7760 nM.

`COc1c(F)cc(OC[C@@H]2COc3cc(OC[C@@H](O)CNCCOc4ccc5c(c4)CNC5=O)ccc3O2)cc1F` [Example 37]: the melting point lay in the range of 182 to 184 °C. In addition, at human beta1-adrenoceptor, the Kd was 2.69 nM and the “Beta 1-Beta 2 Log KD (selectivity)” value amounted to 3.37. On human beta2-adrenoceptor, the Kd is 6310 nM.

As to `Cc1ccccc1OC[C@@H]1COc2cc(OC[C@@H](O)CNCCOc3ccc4c(c3)CNC4=O)ccc2O1` [Example 39], the melting point lay in the range of 146 to 148 °C. In addition, on human beta1-adrenoceptor, the Kd was 1.07 nM and the “Beta 1-Beta 2 Log KD (selectivity)” value came to 2.91. Further, at human beta2-adrenoceptor, the Kd is 871 nM.

`COc1ccc(OCC2COc3cc(OCC(O)CNCCOc4ccc5c(c4)CNC5=O)ccc3O2)c(F)c1` (stereo not drawn) [Example 40] showed a melting point of 145 to 147 °C. On human beta1-adrenoceptor, the Kd was 3.24 nM and the “Beta 1-Beta 2 Log KD (selectivity)” value is 2.70. Moreover, on human beta2-adrenoceptor, the Kd was 1620 nM.

Turning to `O=C1NCc2cc(OCCNC[C@H](O)COc3ccc(CCCN4CCC(F)(F)CC4)cc3)ccc21` [Example 42], the melting point is 132 to 133 °C. Moreover, at human beta1-adrenoceptor, the Kd was 1.95 nM and the “Beta 1-Beta 2 Log KD (selectivity)” value was 2.32. Besides, on human beta2-adrenoceptor, the Kd was 407 nM.

Compound `O=C1NCc2cc(OCCNC[C@H](O)COc3ccc4c(c3)OC[C@@H](CN3CCC(F)(F)CC3)O4)ccc21` [Example 43, 5-(2-((S)-3-((R)-2-((4,4-difluoropiperidin-1-yl)methyl)-2,3-dihydrobenzo[b][1,4]-dioxin-6-yloxy)-2-hydroxypropylamino)ethoxy)isoindolin-1-one] registered a melting point of 134 to 135 °C. On human beta1-adrenoceptor, the Kd is 4.27 nM and the “Beta 1-Beta 2 Log KD (selectivity)” value is listed as 2.81. Besides, the dissociation constant Kd on human beta2-adrenoceptor is 2750 nM.

On to `CC1(C)COc2cc(OC[C@@H](O)CNCCOc3ccc(C(N)=O)cc3)ccc2O1` [Example 44, (S)-4-(2-(3-(2,2-dimethyl-2,3-dihydrobenzo[b][1,4]dioxin-6-yloxy)-2-hydroxypropyl-amino)ethoxy)benzamide], for which the melting point lay within 101 to 103 °C. Also, at human beta1-adrenoceptor, the Kd is 316 nM and the “Beta 1-Beta 2 Log KD (selectivity)” value was less than 2.50. The Kd at human beta2-adrenoceptor was greater than 100000 nM.

Take `CCOCCOc1ccc(OC[C@@H](O)CNCCc2ccc(OC)c(OC)c2)cc1` [Example D-140S]: the β1-selectivity on β1-adrenoceptor is reported as 4,400 fold.

Turning to `N#Cc1cc(OCCOCC2CC2)ccc1OCC(O)CNCCNC(=O)Nc1ccc(O)cc1` (stereo not drawn) [LK-204545], the β1-selectivity on β1-adrenoceptor is listed as 1,778 fold.
